Experimental data from patent US20120172302A1, “COMPOSITION FOR THE TREATMENT OF BENIGN PROSTATE HYPERPLASIA” (priority 2009, published 2012).
Square brackets hold non-standard residues; d marks the D form. Peptide text beside a SMILES is read from it. * marks the point of attachment. dPhe(4-NHCONH2) = NC(=O)Nc1ccc(C[C@@H](N)C(=O)O)cc1; Dihydroorotyl(S) = O=C1C[C@@H](C(=O)*)NC(=O)N1; dPhe(4-Cl) = N[C@H](Cc1ccc(Cl)cc1)C(=O)O; Phe(4-NH2) = Nc1ccc(C[C@H](N)C(=O)O)cc1; d2Nal = N[C@H](Cc1ccc2ccccc2c1)C(=O)O; Lys(iPr) = CC(C)NCCCC[C@H](N)C(=O)O; d3Pal = N[C@H](Cc1cccnc1)C(=O)O

What was measured:
Format in all cases: in vivo, men
patients with BPH [1] = assay: International Prostate Symptom Score (IPSS) questionnaire, clinical trial in BPH patients
Protocol: (§1) For each patient, the following parameters were measured or assessed (using the methods discussed below), at time points of screening (e.g. −7 days) day 0 (“baseline”), day 14, day 28 and day 42:
(§2) After the initial 6-week treatment period of the exploratory study had been completed, a 12-month follow-up period looking at long-term efficacy commenced. Interim data of the main efficacy variables (IPSS, IPSS Global QoL, prostate volume, urinary flow, and post-void residual volume—measured as set out below) after 6 months' follow-up are also presented herein Table 1, 2, 3 FIG. 1b), together with some IPSS data at 9 and 12 months (FIG. 1b).
The IPSS was developed in 1991 by the American Urological Association to assess the severity of urinary symptoms related to BPH (Barry, M. J., et al., The American Urological Association symptom index for benign prostatic hyperplasia. The Measurement Committee of the American Urological Association. J Urol, 1992. 148(5): p. 1549-57; discussion 1564). It has been widely used in clinical studies, has undergone extensive validation and its psychometric properties are well documented in both the original version (containing a 1-month recall) as well as the ‘acute’ version used in this study (containing a one-week recall). The WHO has recommended the use of this instrument for the evaluation of BPH and it is considered to be the internationally accepted, standard questionnaire for assessing lower urinary tract symptoms.
The patients were asked to complete the IPSS questionnaire to evaluate their urinary symptoms. The IPSS is a patient-administered questionnaire containing seven items to evaluate symptoms of urinary obstruction (incomplete emptying, frequency, hesitancy, urgency, weak stream, straining, nocturia) over the preceding week. Each urinary symptom question is assigned points from 0 to 5 indicating increasing severity of the particular symptom. The total score can therefore range from 0 to 35 (0-7: mildly symptomatic; 8-19: moderately symptomatic; 20-35: severely symptomatic). A reduction in score over the treatment is indicative of improvement.

patients with BPH [2] = assay: IPSS global quality of life (QoL) question, clinical trial; conditions: for Percentage of patients feeling delighted, pleased, or mostly satisfied (IPSS Global QoL scores 0-2) / Percentage of patients feeling unhappy or terrible (IPSS Global QoL scores 5 and 6): combined group
Protocol: as §1, §2
Included in the IPSS is one item to evaluate QoL (IPSS-global QoL). The Global QoL Question was developed alongside the IPSS and was officially included as part of the IPSS in 1993 when the WHO formally recommended the IPSS for both symptom and QoL assessment. […] This question assesses the degree to which patients find their symptoms bothersome. Patients are asked about how they would feel if they were to spend the rest of their lives with their prostate symptoms just as they are now. The choices for answering this quality of life question ranged from “delighted” (rating=0) to “terrible” (rating=6).

patients with BPH [3] = assay: Peak (maximal) urinary flow by flowmetry, clinical trial; conditions: for Mean maximal urinary flow: baseline
Protocol: (§3) 2] Efficacy Endpoints—the measured Peak Urinary Flow, Post-void Residual Volume, and Prostate Volume.
Peak urinary flow was determined by flowmetry using the Uropower device (Wiest, World of Medicine AG, Germany). The device fulfilled the International Continence Society standards for maximum urinary flow. The measurement of urinary flow was done in sitting position.
The Qmax is the maximal urinary flow rate. It is the traditional parameter used in BPH trials and is a good indicator of degree of bladder outlet obstruction (BOO).

patients with BPH [4] = assay: Post-void residual volume by transabdominal ultrasound, clinical trial; conditions: for Mean post-void residual volume: all treatment groups
Protocol: as §3
The Post-void Residual Volume (PVR) was evaluated by transabdominal ultrasound. The urine bladder was sonicated from two directions perpendicular to one another resulting in three cursor positions set by the urologist. The volume was calculated automatically. The investigations were performed by urologists by methods known in the art.

[5] = Month 6 follow up, 32+32 mg group, n=7
[6] = baseline, all treatment groups combined
[7] = Month 6 follow-up, 32 mg group, n=7
[8] = Month 6 follow-up, 64 mg group, n=4
[9] = Month 6 follow-up, 16+16 mg group, n=6
[10] = Month 6 follow-up, 32+32 mg group, n=7
[11] = Day 42, all groups, patients violating the maximal uroflow inclusion criterion excluded

Q: With CC(=O)N[C@H](Cc1ccc2ccccc2c1)C(=O)N[C@H](Cc1ccc(Cl)cc1)C(=O)N[C@H](Cc1cccnc1)C(=O)N[C@@H](CO)C(=O)N[C@@H](Cc1ccc(NC(=O)[C@@H]2CC(=O)NC(=O)N2)cc1)C(=O)N[C@H](Cc1ccc(NC(N)=O)cc1)C(=O)N[C@@H](CC(C)C)C(=O)N[C@@H](CCCCNC(C)C)C(=O)N1CCC[C@H]1C(=O)N[C@H](C)C(N)=O [Degarelix, D-Alaninamide, N-acetyl-3-(2-naphthalenyl)-D-alanyl-4-chloro-D-phenylalanyl-3-(3-pyridinyl)-D-alanyl-L-seryl-4-[[[(4S)-hexahydro-2,6-dioxo-4-pyrimidinyl]carbonyl]amino]-L-phenylalanyl-4-[(aminocarbonyl)amino]-D-phenylalanyl-L leucyl-N6-(1-methylethyl)-L-lysyl-L-prolyl] (Ac-[d2Nal][dPhe(4-Cl)][d3Pal]S[Phe(4-NH2)](Dihydroorotyl(S))[dPhe(4-NHCONH2)]L[Lys(iPr)]P[dA]-NH2) as the molecule, how does the “Mean IPSS score” value (patients with BPH [1]; [5]) read?
A: Its value is 6.7 (4.5).

Q: What about the “Percentage responders (decrease in IPSS of at least 30% vs baseline)” value (patients with BPH [1]; [5]) of the same molecule?
A: Its value is 86%.

Q: And the “Number of patients in IPSS category "moderate"” value (patients with BPH [1]; [6])?
A: Its value is 27 patients.

Q: And the “Number of patients in IPSS category "severe"” value (patients with BPH [1]; [6])?
A: Its value is 23 patients.

Q: And the “Mean IPSS global QoL score” value (patients with BPH [2]; Baseline of 6-month follow-up patients, 32 mg group, n=7)?
A: The value was 2.8 (n = 7).

Q: And the “Mean IPSS global QoL score” value (patients with BPH [2]; Baseline of 6-month follow-up patients, 64 mg group, n=4)?
A: Its value is 4.6 (n = 4).

Q: And the “Mean IPSS global QoL score” value (patients with BPH [2]; Baseline of 6-month follow-up patients, 16+16 mg group, n=6)?
A: The value was 4.5 (n = 6).

Q: And the “Mean IPSS global QoL score” value (patients with BPH [2]; Baseline of 6-month follow-up patients, 32+32 mg group, n=7)?
A: The value was 4.3 (n = 7).

Q: What about the “Mean IPSS global QoL score” value (patients with BPH [2]; Baseline, 32 mg group, N=12) of the same molecule?
A: The value was 3.8 (1.7).

Q: And the “Mean IPSS global QoL score” value (patients with BPH [2]; Baseline, 64 mg group, N=13)?
A: The value was 4.7 (1.4).

Q: What about the “Mean IPSS global QoL score” value (patients with BPH [2]; Baseline, 16+16 mg group, N=13) of the same molecule?
A: Its value is 4.2 (1.1).

Q: What about the “Mean IPSS global QoL score” value (patients with BPH [2]; Baseline, 32+32 mg group, N=12) of the same molecule?
A: The value was 4.3 (1.3).

Q: What about the “IPSS global QoL mean change from baseline” value (shortened to “IPSS global QoL mean change”) (patients with BPH [2]; Day 42, 32 mg group) of the same molecule?
A: The value was −2.1 (3.0).

Q: What about the “Mean IPSS global QoL score” value (patients with BPH [2]; Day 42, 32 mg group) of the same molecule?
A: Its value is 1.8 (2.0).

Q: And the “IPSS global QoL mean change” value (patients with BPH [2]; Day 42, 64 mg group)?
A: Its value is −2.2 (1.6).

Q: What about the “Mean IPSS global QoL score” value (patients with BPH [2]; Day 42, 64 mg group) of the same molecule?
A: Its value is 2.5 (1.3).

Q: And the “IPSS global QoL mean change” value (patients with BPH [2]; Day 42, 16+16 mg group)?
A: The value was −1.2 (1.4).

Q: And the “Mean IPSS global QoL score” value (patients with BPH [2]; Day 42, 16+16 mg group)?
A: The value was 2.9 (1.4).

Q: And the “IPSS global QoL mean change” value (patients with BPH [2]; Day 42, 32+32 mg group)?
A: Its value is −2.4 (1.9).

Q: What about the “Mean IPSS global QoL score” value (patients with BPH [2]; Day 42, 32+32 mg group) of the same molecule?
A: The value was 1.9 (1.6).

Q: And the “Percentage of patients feeling delighted, pleased, or mostly satisfied (IPSS Global QoL scores 0-2)” value (patients with BPH [2]; Day 42)?
A: Its value is 58%.

Q: What about the “Percentage of patients feeling unhappy or terrible (IPSS Global QoL scores 5 and 6)” value (patients with BPH [2]; Day 42) of the same molecule?
A: The value was 12%.

Q: And the “IPSS global QoL change from baseline” value (patients with BPH [2]; [7])?
A: Its value is −1.4 (1.1).

Q: And the “Mean IPSS global QoL score” value (patients with BPH [2]; [7])?
A: The value was 1.4 (1.5).

Q: What about the “IPSS global QoL change from baseline” value (patients with BPH [2]; [8]) of the same molecule?
A: The value was −0.8 (1.7).

Q: And the “Mean IPSS global QoL score” value (patients with BPH [2]; [8])?
A: Its value is 3.8 (1.3).

Q: What about the “IPSS global QoL change from baseline” value (patients with BPH [2]; [9]) of the same molecule?
A: Its value is −0.3 (0.5).

Q: And the “Mean IPSS global QoL score” value (patients with BPH [2]; [9])?
A: The value was 4.2 (1.5).

Q: What about the “IPSS global QoL change from baseline” value (patients with BPH [2]; [10]) of the same molecule?
A: The value was −2.7 (2.1).

Q: And the “Mean IPSS global QoL score” value (patients with BPH [2]; [10])?
A: The value was 1.6 (0.8).

Q: And the “Percentage of patients feeling delighted, pleased, or mostly satisfied (IPSS Global QoL scores 0-2)” value (patients with BPH [2]; baseline)?
A: Its value is 8%.

Q: What about the “Percentage of patients feeling unhappy or terrible (IPSS Global QoL scores 5 and 6)” value (patients with BPH [2]; baseline) of the same molecule?
A: The value was 48%.

Q: What about the “Number of patients with maximal urinary flow decreased vs baseline” value (patients with BPH [3]; Day 42, all groups) of the same molecule?
A: Its value is 25 patients.

Q: What about the “Number of patients with maximal urinary flow increased vs baseline” value (patients with BPH [3]; Day 42, all groups) of the same molecule?
A: Its value is 24 patients.

Q: What about the “Number of patients with maximal urinary flow unchanged vs baseline” value (patients with BPH [3]; Day 42, all groups) of the same molecule?
A: Its value is 1 patient.

Q: What about the “Number of patients with decreased uroflow” value (patients with BPH [3]; [11]) of the same molecule?
A: Its value is 17.

Q: What about the “Number of patients with increased uroflow” value (patients with BPH [3]; [11]) of the same molecule?
A: Its value is 20.

Q: And the “Mean maximal urinary flow” value (patients with BPH [3]; 32 mg group)?
A: Its value is 11.7 mL/s.

Q: And the “Mean maximal urinary flow” value (patients with BPH [3]; 64 mg group)?
A: Its value is 9.1 mL/s.

Q: What about the “Mean maximal urinary flow” value (patients with BPH [3]; 16+16 mg group) of the same molecule?
A: Its value is 10.0 mL/s.

Q: And the “Mean maximal urinary flow” value (patients with BPH [3]; 32+32 mg group)?
A: Its value is 9.7 mL/s.

Q: And the “Mean post-void residual volume” value (patients with BPH [4]; Day 14)?
A: Its value is “decreased”.

Q: What about the “Number of patients with post-void residual volume decreased vs baseline” value (patients with BPH [4]; Day 42, all groups) of the same molecule?
A: Its value is 33 patients.

Q: And the “Number of patients with post-void residual volume increased vs baseline” value (patients with BPH [4]; Day 42, all groups)?
A: Its value is 17 patients.

Q: What about the “Mean post-void residual volume” value (patients with BPH [4]; Day 42) of the same molecule?
A: The value was “lower than the baseline value”.
